Laboratory results as given in PubChem BioAssay AID2060483 (Molecular Pharmacology Branch, DTP, NCI, 2025).

Test system: K24384-001-R-PDC complex spheroids, viability
Experiment: Anticancer human tumor K24384-001-R-PDC patient-derived pancreatic adenocarcinoma cell line growth inhibition [GQUAD]
Settings: for IC50: curve of first compound; for viability, T/C: stronger effect = lower value
Summary of the method: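 Tumor cells were grown as complex spheroids with HUVEC endothelial cells and mesenchymal stem cells as stroma. G-quadruplex stabilizers were combined with targeted agents over half-log dilutions from near the clinical Cmax, or from 10 microM.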

[1] = second compound 0.0316 µM, first compound 0.0316 µM
[2] = second compound 0.0316 µM, first compound 0.1 µM
[3] = second compound 0.0316 µM, first compound 0.316 µM
[4] = second compound 0.0316 µM, first compound 1 µM
[5] = second compound 0.0316 µM, first compound 3.16 µM
[6] = second compound 0.0316 µM, first compound 10 µM
[7] = second compound 0.1 µM, first compound 0.0316 µM
[8] = second compound 0.1 µM, first compound 0.1 µM
[9] = second compound 0.1 µM, first compound 0.316 µM
[10] = second compound 0.1 µM, first compound 1 µM
[11] = second compound 0.1 µM, first compound 3.16 µM
[12] = second compound 0.1 µM, first compound 10 µM
[13] = second compound 0.316 µM, first compound 0.0316 µM
[14] = second compound 0.316 µM, first compound 0.1 µM
[15] = second compound 0.316 µM, first compound 0.316 µM
[16] = second compound 0.316 µM, first compound 1 µM
[17] = second compound 0.316 µM, first compound 3.16 µM
[18] = second compound 0.316 µM, first compound 10 µM
[19] = second compound 1 µM, first compound 0.0316 µM
[20] = second compound 1 µM, first compound 0.1 µM
[21] = second compound 1 µM, first compound 0.316 µM
[22] = second compound 1 µM, first compound 1 µM
[23] = second compound 1 µM, first compound 3.16 µM
[24] = second compound 1 µM, first compound 10 µM
[25] = second compound 3.16 µM, first compound 0.0316 µM
[26] = second compound 3.16 µM, first compound 0.1 µM
[27] = second compound 3.16 µM, first compound 0.316 µM
[28] = second compound 3.16 µM, first compound 1 µM
[29] = second compound 3.16 µM, first compound 3.16 µM
[30] = second compound 3.16 µM, first compound 10 µM
[31] = second compound 10 µM, first compound 0.0316 µM
[32] = second compound 10 µM, first compound 0.1 µM
[33] = second compound 10 µM, first compound 0.316 µM
[34] = second compound 10 µM, first compound 1 µM
[35] = second compound 10 µM, first compound 3.16 µM
[36] = second compound 10 µM, first compound 10 µM
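Note: spheroids exposed to compounds for seven days.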

In the case of COc1ncnc(C2CC2)c1-c1ncc2cnn(Cc3ccc(-c4nc(C(F)(F)F)cn4C(C)C)cc3)c2n1 + Cc1[nH]c2ccc(F)cc2c1-c1nc2c3cccnc3c3ncccc3c2[nH]1, the IC50 (second compound 0.0316 µM) is reported as greater than 10000 nM, the IC50 (second compound 0.1 µM) is reported as greater than 10000 nM and the IC50 (second compound 0.316 µM) is reported as greater than 10000 nM. For the same compound, the IC50 (second compound 1 µM) was greater than 10000 nM, the IC50 (second compound 3.16 µM) was greater than 10000 nM and the IC50 (second compound 10 µM) was greater than 10000 nM. For the same compound, the viability, T/C [1] was 106%, the viability, T/C [2] was 109% and the viability, T/C [3] was 122%. It also gave a viability, T/C [4] of 97.5%, a viability, T/C [5] of 104% and a viability, T/C [6] of 128%. It also gave a viability, T/C [7] of 98.4%, a viability, T/C [8] of 98.7% and a viability, T/C [9] of 103%. For the same compound, the viability, T/C [10] was 85.5%, the viability, T/C [11] was 122% and the viability, T/C [12] was 134%. The viability, T/C [13] was 90.8%, the viability, T/C [14] was 107% and the viability, T/C [15] was 107%. It also gave a viability, T/C [16] of 95.6%, a viability, T/C [17] of 96.7% and a viability, T/C [18] of 118%. The viability, T/C [19] was 86.3%, the viability, T/C [20] was 96.8% and the viability, T/C [21] was 95.8%. The viability, T/C [22] was 104%, the viability, T/C [23] was 95.2% and the viability, T/C [24] was 95.7%. For the same compound, the viability, T/C [25] was 81.8%, the viability, T/C [26] was 89.3% and the viability, T/C [27] was 73.2%. It also gave a viability, T/C [28] of 88.7%, a viability, T/C [29] of 95.1% and a viability, T/C [30] of 84.1%. For the same compound, the viability, T/C [31] was 72.5%, the viability, T/C [32] was 102% and the viability, T/C [33] was 64.3%. For the same compound, the viability, T/C [34] was 73.1%, the viability, T/C [35] was 96.1% and the viability, T/C [36] was 75.5%.
Work on Cc1[nH]c2ccccc2c1CCNCc1ccc(/C=C/C(=O)NO)cc1 + Cc1[nH]c2ccc(F)cc2c1-c1nc2c3cccnc3c3ncccc3c2[nH]1 yielded an IC50 (second compound 0.0316 µM) of 139 nM, an IC50 (second compound 0.1 µM) of 138 nM and an IC50 (second compound 0.316 µM) of 121 nM. For the same compound, the IC50 (second compound 1 µM) was 124 nM, the IC50 (second compound 3.16 µM) was 128 nM and the IC50 (second compound 10 µM) was 134 nM. It also gave a viability, T/C (second compound 0.0316 µM, first compound 0.000999 µM) of 103%, a viability, T/C (second compound 0.0316 µM, first compound 0.00316 µM) of 111% and a viability, T/C (second compound 0.0316 µM, first compound 0.00999 µM) of 119%. It also gave a viability, T/C [1] of 103%, a viability, T/C (second compound 0.0316 µM, first compound 0.0999 µM) of 67.9% and a viability, T/C [3] of 5.6%. For the same compound, the viability, T/C (second compound 0.1 µM, first compound 0.000999 µM) was 99.1%, the viability, T/C (second compound 0.1 µM, first compound 0.00316 µM) was 95.2% and the viability, T/C (second compound 0.1 µM, first compound 0.00999 µM) was 98.7%. For the same compound, the viability, T/C [7] was 99.6%, the viability, T/C (second compound 0.1 µM, first compound 0.0999 µM) was 66.7% and the viability, T/C [9] was 7.11%. For the same compound, the viability, T/C (second compound 0.316 µM, first compound 0.000999 µM) was 95%, the viability, T/C (second compound 0.316 µM, first compound 0.00316 µM) was 92.9% and the viability, T/C (second compound 0.316 µM, first compound 0.00999 µM) was 101%. It also gave a viability, T/C [13] of 103%, a viability, T/C (second compound 0.316 µM, first compound 0.0999 µM) of 58.6% and a viability, T/C [15] of 5.93%. For the same compound, the viability, T/C (second compound 1 µM, first compound 0.000999 µM) was 91.3%, the viability, T/C (second compound 1 µM, first compound 0.00316 µM) was 91.8% and the viability, T/C (second compound 1 µM, first compound 0.00999 µM) was 124%. It also gave a viability, T/C [19] of 118%, a viability, T/C (second compound 1 µM, first compound 0.0999 µM) of 60.1% and a viability, T/C [21] of 7.14%. It also gave a viability, T/C (second compound 3.16 µM, first compound 0.000999 µM) of 81.3%, a viability, T/C (second compound 3.16 µM, first compound 0.00316 µM) of 87.7% and a viability, T/C (second compound 3.16 µM, first compound 0.00999 µM) of 77.3%. The viability, T/C [25] was 94.4%, the viability, T/C (second compound 3.16 µM, first compound 0.0999 µM) was 61.1% and the viability, T/C [27] was 8.67%. For the same compound, the viability, T/C (second compound 10 µM, first compound 0.000999 µM) was 77.2%, the viability, T/C (second compound 10 µM, first compound 0.00316 µM) was 72.9% and the viability, T/C (second compound 10 µM, first compound 0.00999 µM) was 77.2%. It also gave a viability, T/C [31] of 118%, a viability, T/C (second compound 10 µM, first compound 0.0999 µM) of 65.4% and a viability, T/C [33] of 5.58%.
Compound O=C(NO)c1cnc(N2CCN(S(=O)(=O)c3ccc4ccccc4c3)CC2)nc1 + Cc1[nH]c2ccc(F)cc2c1-c1nc2c3cccnc3c3ncccc3c2[nH]1 has an IC50 (second compound 0.0316 µM) of 618 nM, an IC50 (second compound 0.1 µM) of 671 nM and an IC50 (second compound 0.316 µM) of 787 nM. For the same compound, the IC50 (second compound 1 µM) was 1050 nM, the IC50 (second compound 3.16 µM) was 871 nM and the IC50 (second compound 10 µM) was 858 nM. The viability, T/C [1] was 109%, the viability, T/C [2] was 105% and the viability, T/C [3] was 87.7%. It also gave a viability, T/C [4] of 23.1%, a viability, T/C [5] of 0.14% and a viability, T/C [6] of 0.17%. It also gave a viability, T/C [7] of 96.6%, a viability, T/C [8] of 103% and a viability, T/C [9] of 79.2%. For the same compound, the viability, T/C [10] was 35%, the viability, T/C [11] was 0.16% and the viability, T/C [12] was 0.15%. It also gave a viability, T/C [13] of 102%, a viability, T/C [14] of 94.5% and a viability, T/C [15] of 88.4%. The viability, T/C [16] was 40.5%, the viability, T/C [17] was 0.1% and the viability, T/C [18] was 0.12%. It also gave a viability, T/C [19] of 105%, a viability, T/C [20] of 107% and a viability, T/C [21] of 101%. It also gave a viability, T/C [22] of 52.3%, a viability, T/C [23] of 0.16% and a viability, T/C [24] of 0.12%. It also gave a viability, T/C [25] of 75.6%, a viability, T/C [26] of 110% and a viability, T/C [27] of 88.7%. It also gave a viability, T/C [28] of 44.7%, a viability, T/C [29] of 0.18% and a viability, T/C [30] of 0.14%. For the same compound, the viability, T/C [31] was 71.5%, the viability, T/C [32] was 95.8% and the viability, T/C [33] was 82.7%. It also gave a viability, T/C [34] of 44.9%, a viability, T/C [35] of 0.22% and a viability, T/C [36] of 0.17%.
Compound COc1ccc([C@@H](O)c2cc(-c3ncnc4cc(N5CCOCC5)ccc34)c(F)cc2Cl)nn1 + Cc1cnc(CNC(=O)c2c(=O)c3ccc(N4CCCN(C)CC4)nc3n3c2sc2ccccc23)cn1 has an IC50 (second compound 0.0316 µM) of 1240 nM, an IC50 (second compound 0.1 µM) of 497 nM and an IC50 (second compound 0.316 µM) of 120 nM. It also gave an IC50 (second compound 1 µM) of less than 31.6 nM, an IC50 (second compound 3.16 µM) of less than 31.6 nM and an IC50 (second compound 10 µM) of less than 31.6 nM. The viability, T/C [1] was 89.9%, the viability, T/C [2] was 81.5% and the viability, T/C [3] was 70.8%. It also gave a viability, T/C [4] of 45.9%, a viability, T/C [5] of 43.8% and a viability, T/C [6] of 23.6%. The viability, T/C [7] was 57.2%, the viability, T/C [8] was 68.7% and the viability, T/C [9] was 46.5%. The viability, T/C [10] was 42.3%, the viability, T/C [11] was 39.1% and the viability, T/C [12] was 17.6%. It also gave a viability, T/C [13] of 48.6%, a viability, T/C [14] of 57.6% and a viability, T/C [15] of 43.1%. For the same compound, the viability, T/C [16] was 41.5%, the viability, T/C [17] was 34% and the viability, T/C [18] was 12.6%. For the same compound, the viability, T/C [19] was 40.5%, the viability, T/C [20] was 59.9% and the viability, T/C [21] was 35.4%. It also gave a viability, T/C [22] of 34.1%, a viability, T/C [23] of 21.7% and a viability, T/C [24] of 12.7%. It also gave a viability, T/C [25] of 36.7%, a viability, T/C [26] of 41.9% and a viability, T/C [27] of 33.4%. The viability, T/C [28] was 29.8%, the viability, T/C [29] was 24.6% and the viability, T/C [30] was 10.2%. The viability, T/C [31] was 28.1%, the viability, T/C [32] was 29.9% and the viability, T/C [33] was 27.4%. The viability, T/C [34] was 27.4%, the viability, T/C [35] was 16.8% and the viability, T/C [36] was 0.52%.
